Data reported in paper PMC6522524 (Nature Communications, 2019).
Several values for one entry are separate records, joined by “and”; a condition that tells them apart may be missing. Identical values can stand only once. Like-named read-outs stand apart in the source and are kept apart here.

Columns and labels:
[1] = tested on: HBV cccDNA in Huh-7-NTCP cells; assay: In vitro HBV infection model, Huh-7-NTCP cells: intracellular cccDNA; details: Huh-7-NTCP
Protocol: (§5) HepG2 and Huh-7 cells permanently expressing NTCP were generated by infecting them with an NTCP-encoding recombinant retrovirus and isolating GFP-expressing cells.
(§6) The isolated intracellular HBV DNA was subjected to PCR with an HBV DNA primer and probe set (Supplementary Table 1). cccDNA was isolated by the Hirt extraction method[54]. Briefly, the cells were lysed in SDS lysis buffer (50 mM Tris-HCl, pH 8.0, 10 mM EDTA, 150 mM NaCl, 1% SDS), and the lysates were mixed with KCl to a final concentration of 0.5 M. After incubation at 4 °C for 30 min, each lysate was centrifuged and the supernatant was extracted three times with phenol and once with chloroform. The DNA was then recovered by ethanol precipitation, and treated with T5 nuclease (10 U per μg for 0.5 h, M0363, New England Biolabs), and the enzyme was subsequently heat-denatured at 70 °C. The isolated cccDNA was subjected to PCR with a cccDNA primer and probe set (Supplementary Table 1).
(§7) HepG2-NTCP and Huh-7-NTCP cells were cultured in 12-well plates with the indicated compound(s) for 4 h, after which the cells were infected with HBV particles (10^7 viral genome equivalent per mL, genotype D) and treated with the indicated compound(s) for another 16 h. […]
(§8) Quantitative PCR with an HBV DNA primer and probe set was used to measure intracellular
(§9) cccDNA. The data are expressed as means ± SDs. […]

[2] = tested on: HBV (genotype D) in PXB mice; details: for ALT(ng/mL), Sample1-3 / HBeAg(Signal to control ratio), Sample1-3 / HBsAg(ng/mL), Sample1-3 / Human albumin(g/dL), Sample1-3: individual samples
[3] = tested on: HBV cccDNA in HepG2-NTCP cells; assay: In vitro HBV infection model, HepG2-NTCP cells: intracellular cccDNA; details: HepG2-NTCP
Protocol: as §5, §6, §7, §8, §9

[4] = tested on: HBV replicative plasmid pAAV-HBV1.2× in C57BL/6 mice; assay: Hydrodynamic injection mouse model (pAAV-HBV1.2×, C57BL/6 mice); assay type: in vivo; details: for HBsAg, Sample1-5: single samples
HepG2 cells = assay: in vitro; assay type: cell-based, human; details: HepG2+HBV 1.2X; With DFO; Concentration 0 μM
Protocol: (§1) Supplementary Fig. 11. Effect of FBS serum iron level on Huh-7, HepG2, and HepG2.2.15 cell
(§2) a Cells were maintained in medium supplemented with 2% FBS or 10% FBS for 1 day and treated with
(§3) After 6 days, cytotoxicity was measured. b Cells were treated with
(§4) the ± SD. *p < 0.05 by unpaired two-tailed Student’s t-test.

HepG2.2.15 cells = details: HepG2.2.15; With DFO; Concentration 0 μM
Huh-7 cells = assay: in vitro; assay type: cell-based, human; details: Huh7+HBV 1.2X; With DFO; Concentration 0 μM
Protocol: as §1, §2, §3, §4

crystal structure = target: the molecule itself; assay: crystal structure
[5] = 5 mg per kg oral daily, by day 5

In the case of C[C@H](Cn1cnc2c(N)ncnc21)OCP(=O)(O)O [TDF, tenofovir], the “cccDNA levels” value [1] is reported as “reduced cccDNA levels”, the “intrahepatic cccDNA” value ([2]; 5 mg per kg oral daily, by week 5) is reported as “significantly reduced the amount of intrahepatic cccDNA” and the HBeAg levels ([2]; 5 mg per kg oral daily, by week 5, compared to control) is reported as “significantly decreased HBeAg levels”. For the same molecule, the “cccDNA, individual samples” value ([2]; Figure 7g, Sample1-3) was 0.17 log copies/cell and 0.21 log copies/cell and 0.12 log copies/cell, the “cccDNA, AVERAGE” value ([2]; Figure 7g, average of 3 samples) was 0.166 log copies/cell and the “Serum HBV DNA, AVERAGE” value ([2]; mouse, in vivo) was 4.377 log copies/mL. For the same molecule, the “Serum HBV DNA, individual samples” value ([2]; mouse, in vivo) was 4.385 log copies/mL and 3.759 log copies/mL and 4.998 log copies/mL, the “Serum ALT levels” value ([2]; mouse, in vivo, po) was “decreased” and the “ALT(ng/mL), AVERAGE” value ([2]; week 0) was 115.048 ng/mL. For the same molecule, the “HBeAg(Signal to control ratio), AVERAGE” value ([2]; week 0) was 3.779 Signal to control ratio, the “HBsAg(ng/mL), AVERAGE” value ([2]; week 0) was 399.9 ng/mL and the “Human albumin(g/dL), AVERAGE” value ([2]; week 0) was 4.601 g/dL. For the same molecule, the “ALT(ng/mL), Sample1-3” value ([2]; week 0) was 115.042 ng/mL and 132.129 ng/mL and 97.9737 ng/mL, the “HBeAg(Signal to control ratio), Sample1-3” value ([2]; week 0) was 3.7788 Signal to control ratio and 3.545 Signal to control ratio and 4.013 Signal to control ratio and the “HBsAg(ng/mL), Sample1-3” value ([2]; week 0) was 400.008 ng/mL and 382.767 ng/mL and 416.907 ng/mL. For the same molecule, the “Human albumin(g/dL), Sample1-3” value ([2]; week 0) was 4.6008 g/dL and 4.367 g/dL and 4.835 g/dL, the “ALT(ng/mL), AVERAGE” value ([2]; week 1) was 115.048 ng/mL and the “HBeAg(Signal to control ratio), AVERAGE” value ([2]; week 1) was 3.705 Signal to control ratio. The “HBsAg(ng/mL), AVERAGE” value ([2]; week 1) was 397.7 ng/mL, the “Human albumin(g/dL), AVERAGE” value ([2]; week 1) was 4.701 g/dL and the “ALT(ng/mL), Sample1-3” value ([2]; week 1) was 115.042 ng/mL and 132.61 ng/mL and 97.4937 ng/mL. The “HBeAg(Signal to control ratio), Sample1-3” value ([2]; week 1) was 3.705 Signal to control ratio and 3.582 Signal to control ratio and 3.828 Signal to control ratio, the “HBsAg(ng/mL), Sample1-3” value ([2]; week 1) was 397.708 ng/mL and 379.982 ng/mL and 415.082 ng/mL and the “Human albumin(g/dL), Sample1-3” value ([2]; week 1) was 4.7008 g/dL and 4.578 g/dL and 4.824 g/dL. For the same molecule, the “ALT(ng/mL), AVERAGE” value ([2]; week 2) was 67.3429 ng/mL, the “HBeAg(Signal to control ratio), AVERAGE” value ([2]; week 2) was 3.6862 Signal to control ratio and the “HBsAg(ng/mL), AVERAGE” value ([2]; week 2) was 390.5 ng/mL. For the same molecule, the “Human albumin(g/dL), AVERAGE” value ([2]; week 2) was 4.6007 g/dL, the “ALT(ng/mL), Sample1-3” value ([2]; week 2) was 67.3361 ng/mL and 86.0047 ng/mL and 48.688 ng/mL and the “HBeAg(Signal to control ratio), Sample1-3” value ([2]; week 2) was 3.6863 Signal to control ratio and 3.541 Signal to control ratio and 3.831 Signal to control ratio. For the same molecule, the “HBsAg(ng/mL), Sample1-3” value ([2]; week 2) was 390.508 ng/mL and 371.671 ng/mL and 408.971 ng/mL, the “Human albumin(g/dL), Sample1-3” value ([2]; week 2) was 4.6008 g/dL and 4.456 g/dL and 4.746 g/dL and the “ALT(ng/mL), AVERAGE” value ([2]; week 3) was 35.9023 ng/mL. The “HBeAg(Signal to control ratio), AVERAGE” value ([2]; week 3) was 3.392 Signal to control ratio, the “HBsAg(ng/mL), AVERAGE” value ([2]; week 3) was 386.5 ng/mL and the “Human albumin(g/dL), AVERAGE” value ([2]; week 3) was 4.4 g/dL. The “HBeAg(Signal to control ratio), Sample1-3” value ([2]; week 3) was 3.3922 Signal to control ratio and 2.738 Signal to control ratio and 4.046 Signal to control ratio, the “HBsAg(ng/mL), Sample1-3” value ([2]; week 3) was 386.508 ng/mL and 366.308 ng/mL and 406.308 ng/mL and the “Human albumin(g/dL), Sample1-3” value ([2]; week 3) was 4.4008 g/dL and 3.746 g/dL and 5.054 g/dL. The “ALT(ng/mL), AVERAGE” value ([2]; week 4) was 31.5198 ng/mL, the “HBeAg(Signal to control ratio), AVERAGE” value ([2]; week 4) was 3.246 Signal to control ratio and the “HBsAg(ng/mL), AVERAGE” value ([2]; week 4) was 375.5 ng/mL. The “Human albumin(g/dL), AVERAGE” value ([2]; week 4) was 4.601 g/dL, the “HBeAg(Signal to control ratio), Sample1-3” value ([2]; week 4) was 3.2465 Signal to control ratio and 2.922 Signal to control ratio and 3.57 Signal to control ratio and the “HBsAg(ng/mL), Sample1-3” value ([2]; week 4) was 375.508 ng/mL and 355.54 ng/mL and 395.08 ng/mL. For the same molecule, the “Human albumin(g/dL), Sample1-3” value ([2]; week 4) was 4.6008 g/dL and 4.276 g/dL and 4.924 g/dL, the “ALT(ng/mL), AVERAGE” value ([2]; week 5) was 19.0197 ng/mL and the “HBeAg(Signal to control ratio), AVERAGE” value ([2]; week 5) was 3.146 Signal to control ratio. For the same molecule, the “HBsAg(ng/mL), AVERAGE” value ([2]; week 5) was 370.7 ng/mL, the “Human albumin(g/dL), AVERAGE” value ([2]; week 5) was 4.801 g/dL and the “HBeAg(Signal to control ratio), Sample1-3” value ([2]; week 5) was 3.1465 Signal to control ratio and 2.933 Signal to control ratio and 3.359 Signal to control ratio. The “HBsAg(ng/mL), Sample1-3” value ([2]; week 5) was 370.708 ng/mL and 351.467 ng/mL and 389.567 ng/mL, the “Human albumin(g/dL), Sample1-3” value ([2]; week 5) was 4.8008 g/dL and 4.588 g/dL and 5.014 g/dL and the “cccDNA levels” value [3] was “reduced cccDNA levels”. The “HBV core protein levels in the liver” value [4, 5] was “reduced HBV core protein levels in the liver”, the “serum HBV DNA levels” value [4, 5] was “significantly lowered serum HBV DNA levels” and the “HBsAg, AVERAGE” value ([4]; day 2) was 271.658 ng/mL. For the same molecule, the “HBsAg, AVERAGE” value ([4]; day 3) was 286.73 ng/mL, the “HBsAg, AVERAGE” value ([4]; day 4) was 300.864 ng/mL and the “HBsAg, AVERAGE” value ([4]; day 5) was 301.678 ng/mL. For the same molecule, the “HBsAg, Sample1-5” value ([4]; day 2) was 271.684 ng/mL and 284.96 ng/mL and 258.424 ng/mL and 258.29 ng/mL and 284.933 ng/mL, the “HBsAg, Sample1-5” value ([4]; day 3) was 286.759 ng/mL and 301.375 ng/mL and 272.159 ng/mL and 272.011 ng/mL and 301.346 ng/mL and the “HBsAg, Sample1-5” value ([4]; day 4) was 300.869 ng/mL and 303.445 ng/mL and 298.296 ng/mL and 298.27 ng/mL and 303.44 ng/mL. For the same molecule, the “HBsAg, Sample1-5” value ([4]; day 5) was 301.701 ng/mL and 312.285 ng/mL and 291.119 ng/mL and 291.012 ng/mL and 312.273 ng/mL.

With CC(=O)N(O)CCCCCNC(=O)CCC(=O)N(O)CCCCCNC(=O)CCC(=O)N(O)CCCCCN [DFO] the “Cell viability(%), AVERAGE, DFO alone” value (HepG2 cells) was 98.1893%, the “Cell viability(%), AVERAGE, DFO alone” value (HepG2.2.15 cells) was 97.6681% and the “Cell viability(%), AVERAGE, DFO alone” value (Huh-7 cells) was 97.5263%.

B1: Cp149-Y132A (Y132A mutant of Cp149) (domain or fragment)
chain: MDIDPYKEFGATVELLSFLPSDFFPSVRDLLDTAAALYRDALESPEHCSPHHTALRQAILCWGDLMTLATWVGTNLEDPASRDLVVSYVNTNVGLKFRQLLWFHISCLTFGRETVLEYLVSFGVWIRTPPAARPPNAPILSTLPETTVV
notes: source: E. coli BL21 (DE3), purified (Ni-NTA, thrombin, HiTrap Q anion exchange)
In the case of B1, the “stoichiometry N” value (crystal structure) is reported as 6.
